Results: patent US12565673B2, “Methods for the design of nonallosteric sirtuin activating compounds” (Chakrabarti Advanced Technology, LLC, priority 2020, dated 2026)
pKd: −log10 of the molar value.

Molecular target: T1, hSirt3^102-399 (Homo sapiens, UniProt Q9NTG7)
T1 construct: hSirt3^102-399 was expressed in E. coli Arctic Express (DE3) cells; His-tag (only implied by the HisTrap / imidazole purification); made in house; host or cells: E. coli Arctic Express (DE3)
T1 sequence (Q9NTG7 102-399): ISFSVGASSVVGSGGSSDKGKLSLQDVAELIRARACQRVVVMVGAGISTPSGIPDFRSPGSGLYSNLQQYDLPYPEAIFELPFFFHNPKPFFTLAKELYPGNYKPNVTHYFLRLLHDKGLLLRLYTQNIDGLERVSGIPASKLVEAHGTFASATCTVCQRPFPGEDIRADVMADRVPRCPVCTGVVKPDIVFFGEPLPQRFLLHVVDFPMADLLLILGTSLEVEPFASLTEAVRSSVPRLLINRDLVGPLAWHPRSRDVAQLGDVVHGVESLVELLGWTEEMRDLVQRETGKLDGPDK
Test: hSirt3 ligand binding assay by microscale thermophoresis (MST)
Settings: Sirt3.Ac-MnSOD complex (FIG. 9)
Procedure: The binding affinities of ligands to complexes in the catalytic mechanism of SIRT3/MnSOD peptide substrate were measured using microscale thermophoresis (MST; FIG. 9, FIG. 10).
Briefly, the protein conjugation was done in 1×PBS pH 7.4, 0.05% Pluronic F-127, and the labeled protein was buffer exchanged into 47 mM Tris-HCl pH 8.0, 129 mM NaCl, 2.5 mM KCl, 0.94 mM MgCl2, 5% DMSO, 0.05% Tween-20. We used 2 nM labeled hSirt3 and titrated with varying concentrations of the modulators in the absence and presence of various concentrations of substrates, products and intermediates. The thermophoresis was measured (excitation/emission 653/672 nm) using a Monolith NT. […] Dissociation constants (Kd) were determined using GraFit7 (Erithacus Software) by nonlinear fitting.

pKd: > 5.00
Structure (SMILES): C=CCc1ccc(O)c(-c2ccc(O)c(CC=C)c2)c1 [HKL, 5, 3′-Diallyl-2, 4′-dihydroxybiphenyl]
